Columns and labels:
[1] = Evaluation of ability to produce butyrate from indigestible saccharides (Example 3)
Description: Galactooligosaccharide (GOS), maltitol, D-mannitol, lactitol, isomalt, isomaltulose, L-sorbose and D-sorbitol were used as indigestible saccharides. These indigestible saccharides used, except for GOS, were reagent grade. GOS used was commercially available Oligomate 55N (Yakult Pharmaceutical Industry Co., Ltd.) from which monosaccharide and lactose fractions (fractions digestible and absorbable by the upper gastrointestinal tract) had been removed using an activated carbon column. Specifically, a saccharide solution diluted with purified water was added to a column packed with activated carbon (manufactured by Wako Pure Chemical Industries, Ltd.) swollen in purified water, and the column was washed with a 2% ethanol solution, followed by the elution of an indigestible fraction with a 50% ethanol solution. The eluate was dried under reduced pressure, and the obtained GOS saccharide solution was used.
A. hadrus YIT 10092^T (DSM 3119^T), which is a type strain of A. hadrus (a typical human intestinal butyrate-producing bacterium), and two isolates were used.
Each of these bacterial strains was anaerobically cultured at 37° C. for 24 hours in a PYA medium containing 33 mM sodium acetate supplemented with 0.5% D-glucose (PYGA medium). The culture solution was inoculated at 1% to a PYA medium containing 0.5 (w/v) % of each indigestible saccharide (test medium), followed by anaerobic culture at 37° C. for 24 hours. After the completion of the culture, the organic acid concentration in the culture solution was analyzed by ion-exclusion HPLC. The analysis conditions were the same as those described above in Example 2. After the quantification of the organic acid concentration, the amount of butyrate produced from each indigestible saccharide and the ratio of butyrate to total short-chain fatty acids were calculated according to the following expressions. (Amount of butyrate produced)=(Amount of butyrate in the test medium after culture)−(Amount of butyrate in a PYA medium without each indigestible saccharide after culture) (Ratio of butyrate)=(Amount of butyrate in the test medium after culture)/((Amount of acetate+Amount of propionate+Amount of butyrate) in the test medium after culture)×100 (Expression 3)

[2] = Turbidity (OD660) after anaerobic culture of bacterial strains in PYGA, PYSA or PYXA medium
Method: (§1) A frozen stock solution of each bacterial strain (a 10% (w/v) skim milk-2% sodium glutamate solution in which bacterial cells were suspended) (cell count: 2.0 to 5.5×10^10 cells/mL) was thawed, and the solution was inoculated at 1% to 4 mL of a PY liquid medium supplemented with 33 mM sodium acetate and 0.5 (w/v) % glucose (PYGA medium), followed by anaerobic culture at 37° C. for 24 hours. After the culture, the culture solution was inoculated at 1% to a fresh PYGA medium, followed by anaerobic culture at 37° C. for 24 hours. After the culture, the turbidity (OD660) of the culture solution was measured. Then, the culture solution was inoculated at 1% to a PY medium containing 0.5 (w/v) % L-sorbose or D-xylitol and 33 mM sodium acetate (the medium containing L-sorbose: PYSA, and the medium containing D-xylitol: PYXA), followed by anaerobic culture at 37° C. for 24 hours. Then, the turbidity (OD660) was measured.

[3] = Amount of butyrate produced by culture in PYA medium supplemented with acetate and lactate; conditions: PYA medium (33 mM sodium acetate) with 40 mM sodium lactate, 37° C. 24 hours, minus PYA without lactate
Method: Each bacterial solution cultured in a PYGA liquid medium under the same conditions as those described in the preceding paragraph 1) was inoculated at 1% to a PYA medium containing 33 mM sodium acetate and further supplemented with 40 mM sodium lactate, followed by anaerobic culture at 37° C. for 24 hours. After the completion of the culture, the organic acid concentration in the culture solution was analyzed by ion-exclusion HPLC. The analysis conditions were the same as those described in the preceding paragraph 1). The amount of butyrate produced was calculated according to (Expression 2). Amount of butyrate produced=(Amount of butyrate produced by culture for 24 hours in a PYA medium supplemented with 40 mM sodium lactate)−(Amount of butyrate produced by culture for 24 hours in a PYA medium without 40 mM sodium lactate) (Expression 2)

[4] = Production of butyrate by each bacterial strain from L-sorbose and D-xylitol (ion-exclusion HPLC); conditions: 24 hours, minus PYA blank
Method: as §1
After the completion of the culture, the organic acid concentration in the culture solution was quantified by ion-exclusion HPLC. In this operation, a culture solution in a PY medium supplemented with sodium acetate but without L-sorbose or D-xylitol (PYA medium) was used as a blank.
(HPLC Analysis Conditions) • Eluent: 15 mM perchloric acid-7% acetonitrile • pH adjuster: 15 mM perchloric acid-60 mM • tris(hydroxymethyl)aminomethane-7% acetonitrile • Separation column: Organic acid analysis column RSpak KC- • 811×2 (manufactured by Showa Denko K.K.) • Column temperature: 42° C. • Injected sample volume: 10 μL • Flow rate: 1.0 mL/min • Analysis time: 35 min • Detector: Waters 432 electric conductivity detector • Cell temperature: 45° C.
The amount of butyrate produced was calculated according to (Expression 1). Amount of butyrate produced=(Amount of butyrate produced by culture for 24 hours in a PYSA or PYXA medium)−(Amount of butyrate produced by culture for 24 hours in a PYA medium) (Expression 1)

[5] = Biochemical properties: saccharide fermentability (API-ZYM, Rapid ID32A API, API KENKI 20A); set-up: key: +: positive reaction; −: negative reaction; +^w: weak reaction
Description: (§2) Commercially available API-ZYM, Rapid ID32A API, and API KENKI 20A (SYSMEX bioMerieux Co., Ltd.) were used in the testing of biochemical properties of various bacterial strains. The testing method followed the product manuals.

[6] = Biochemical properties: enzymatic activity (API-ZYM, Rapid ID32A API, API KENKI 20A); set-up: key: +: positive reaction; −: negative reaction; +^w: weak reaction
Description: as §2

Acid phosphatase [6]: +
Alkaline phosphatase [6]: +
Esterase (C4) [6]: −
Naphthol-AS-B1-phosphohydrolase [6]: +
α-Glucosidase [6]: −
β-Galactosidase [6]: +
β-Galactosidase-6-phosphate [6]: −
Substance: A. hadrus (Eubacterium hadrum) YIT 12354 (NITE BP-01831)
ability to utilize indigestible saccharides ([1]; PYA medium with 0.5 (w/v) % of each indigestible saccharide, versus type strain, FIGS. 3 and 4): more than the type strain YIT 10092^T
Amount of butyrate produced ([1]; from indigestible saccharides, versus type strain, FIG. 3): larger
ratio of butyrate to total short-chain fatty acids ([1]; versus type strain YIT 10092^T, FIG. 4): higher than that of the type strain YIT 10092^T
Turbidity (OD660) ([2]; after anaerobic culture at 37° C. for 24 hours in PYGA liquid medium): 2.76
Turbidity (OD660) ([2]; anaerobic culture at 37° C. for 24 hours of 1% inoculum in PYSA (L-sorbose)): 2.26
Turbidity (OD660) ([2]; anaerobic culture at 37° C. for 24 hours of 1% inoculum in PYXA (D-xylitol)): 1.09
Amount of butyrate produced [3]: 16.5 mmol/L
Amount of butyrate produced ([4]; D-Xylitol 0.5 (w/v) %, PYXA medium): 31.0 mmol/L
Amount of butyrate produced ([4]; L-Sorbose 0.5 (w/v) %, PYSA medium): 14.8 mmol/L
Aesculin [5]: −
D-Cellobiose [5]: −
D-Mannitol [5]: +
D-Raffinose [5]: +^w
D-Xylose [5]: +
Glycerol [5]: −
L-Arabinose [5]: +
L-Rhamnose [5]: −
L-Sorbitol [5]: +
Mallose [5]: +^w
Salicin [5]: −

Reference: patent US10293004B2, “Butyrate-producing bacterium and use thereof” (KABUSHIKI KAISHA YAKULT HONSHA, priority 2014, dated 2019)
